One assay deals with T1, CFTR channel (Homo sapiens, UniProt P13569, DEL508-508).
T1 construct: having recorded the I/V in cells treated with tamoxifen for 24 hours; endogenous in cells; host or cells: CFBE (F508del/F508del) or IB3-1 (F508del/W1282X) cells
The experiment in a line: patch clamp chloride currents in tamoxifen-treated cells with CFTR inhibitor. The class given is cell-based. The settings on record: cells treated with tamoxifen 5 μM for 24 hours, then tamoxifen + CFTR inh (FIG. 3). As for the experimental part:
(§1) The chloride currents through the Ca-dependent chloride channels were measured using the patch clamp technique in perforated whole-cell configuration. The whole-cell configuration was obtained not by breaking the membrane below the electrode, but thanks to the action of an ionophore (gramicidin, 10 μg/ml) which, forming pores through the membrane, guarantees electrical continuity between the solution for the electrode and the cytoplasm, while maintaining the cellular integrity. Thus, cytoplasmic components that might be important to the maintenance of channel activity are not removed after dialysis of the cytoplasm with the solution contained in the electrode. […]
The solution for the electrode contained (mM): 145 KCl, 1 MgCl2, 10 HEPES, pH 7,25. […] The bath solution was hypertonic (measured osmolarity 337 mOsm) with respect to that of the electrode to inhibit the currents activated by swelling, present in the cells used also in isosmolarity conditions of the bath solution (as noted in previously carried out whole-cell experiments).
Finally, in order to evaluate a possible action of tamoxifen on the CFTR channel, having recorded the I/V in cells treated with tamoxifen for 24 hours, the replacement of the solution with one containing tamoxifen and CFTR inh (specific inhibitor of CFTR) (FIG. 3) was carried out.
(In general: The patch-clamp technique gives a direct electrical read-out from membranes.)

Assay [1] has as its system Ca-dependent chloride channels. Briefly: patch clamp, perforated whole-cell configuration, chloride currents in CF bronchial epithelial cells. It is filed as cell-based. The procedure:
Our experiments were carried out on homozygous CFBE cells leading the F508del/F508 del mutation and on IB3-1 cells (immortalized cell line of bronchial epithelium cystic fibrosis cells, which bring F508del/W1282X mutation).
as §1
The solution for the electrode contained (mM): 145 KCl, 1 MgCl2, 10 HEPES, pH 7,25. […] The bath solution was hypertonic (measured osmolarity 337 mOsm) with respect to that of the electrode to inhibit the currents activated by swelling, present in the cells used also in isosmolarity conditions of the bath solution (as noted in previously carried out whole-cell experiments). […]

T1 sequence (P13569 with tags, fused parts or gaps DEL508-508): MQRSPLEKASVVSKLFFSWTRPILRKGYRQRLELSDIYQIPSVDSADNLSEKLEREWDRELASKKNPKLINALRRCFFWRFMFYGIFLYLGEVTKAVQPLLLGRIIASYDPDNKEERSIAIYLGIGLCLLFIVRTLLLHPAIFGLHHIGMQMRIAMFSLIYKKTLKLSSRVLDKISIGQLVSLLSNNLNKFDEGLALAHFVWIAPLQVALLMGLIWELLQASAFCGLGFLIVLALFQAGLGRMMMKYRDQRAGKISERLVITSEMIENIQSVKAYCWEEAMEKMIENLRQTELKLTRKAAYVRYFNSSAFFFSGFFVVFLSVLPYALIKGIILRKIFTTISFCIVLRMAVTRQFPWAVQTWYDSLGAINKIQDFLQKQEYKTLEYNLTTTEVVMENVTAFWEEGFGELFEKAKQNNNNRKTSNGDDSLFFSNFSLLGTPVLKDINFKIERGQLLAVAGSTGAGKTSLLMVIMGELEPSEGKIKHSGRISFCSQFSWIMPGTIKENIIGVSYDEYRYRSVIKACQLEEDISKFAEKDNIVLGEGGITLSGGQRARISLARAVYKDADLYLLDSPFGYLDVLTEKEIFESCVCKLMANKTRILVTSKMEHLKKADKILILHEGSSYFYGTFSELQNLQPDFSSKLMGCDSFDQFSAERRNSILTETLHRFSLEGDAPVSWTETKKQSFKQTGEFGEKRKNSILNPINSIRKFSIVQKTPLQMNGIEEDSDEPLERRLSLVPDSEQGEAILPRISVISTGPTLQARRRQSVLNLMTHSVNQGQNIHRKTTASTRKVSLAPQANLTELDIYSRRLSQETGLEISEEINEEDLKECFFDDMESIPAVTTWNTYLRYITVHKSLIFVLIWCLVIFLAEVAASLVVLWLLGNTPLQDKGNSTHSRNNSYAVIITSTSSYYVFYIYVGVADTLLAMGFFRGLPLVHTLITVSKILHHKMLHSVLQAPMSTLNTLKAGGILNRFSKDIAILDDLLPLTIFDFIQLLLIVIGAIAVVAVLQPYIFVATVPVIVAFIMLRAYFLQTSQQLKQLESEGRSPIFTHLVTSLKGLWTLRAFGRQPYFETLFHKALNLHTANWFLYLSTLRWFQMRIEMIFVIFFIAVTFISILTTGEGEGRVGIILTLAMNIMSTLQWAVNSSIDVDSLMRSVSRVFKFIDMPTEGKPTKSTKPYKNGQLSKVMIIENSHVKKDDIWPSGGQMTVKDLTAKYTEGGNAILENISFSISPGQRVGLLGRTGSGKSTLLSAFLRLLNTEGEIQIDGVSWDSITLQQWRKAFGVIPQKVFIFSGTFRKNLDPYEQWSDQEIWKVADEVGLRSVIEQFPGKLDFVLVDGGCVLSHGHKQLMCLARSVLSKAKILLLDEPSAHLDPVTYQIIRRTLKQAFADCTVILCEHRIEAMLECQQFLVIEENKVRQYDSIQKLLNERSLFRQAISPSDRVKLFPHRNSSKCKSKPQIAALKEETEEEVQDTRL

For `CC/C(=C(\c1ccccc1)c1ccc(OCCN(C)C)cc1)c1ccccc1` [tamoxifen], the “effect on chloride currents in the presence of the inhibitor of CFTR” value at CFTR channel is “does not change significantly”. Besides, the “current density compared to control conditions” value in assay [1] (CFBE or IB3-1 cells incubated 40 minutes with tamoxifen 5 μM (FIG. 1)) is given as “significantly increased”. For the same compound, the “effect on Ca-dependent chloride currents over time” value in assay [1] (cells incubated with 5 μM tamoxifen for 24 hours (FIG. 2)) is on record as “remains almost unchanged over time”.
